Experimental data: paper PMC9603750, “Chalcone-Acridine Hybrid Suppresses Melanoma Cell Progression via G2/M Cell Cycle Arrest, DNA Damage, Apoptosis, and Modulation of MAP Kinases Activity” (International Journal of Molecular Sciences, 2022)

Legend:
Assay type in all cases: cell-based, human
[1] = system: A2058 melanoma cells; experiment: Flow cytometric analysis of cytochrome c release; settings: A2058, 1C 10 μmol/L, 24, 48 and 72 h
Method: (§1) The A2058 and BLM melanoma cells were seeded 1 × 10^6 in Petri dishes with complete growth medium and cultivated for 24 h. After cell cultivation, the A2058 cells were treated with chalcone 1C at 10 μmol/L concentration, BLM cells at 20 μmol/L concentration and both melanoma cell lines were treated with DMSO as the negative control at the same concentrations for 24, 48 and 72 h. Adherent and floating cells were harvested, pelleted by centrifugation at 1200 rpm for 5 min. Pellets were resuspended in washing buffer (PBS) and divided for a particular analysis. Afterwards, cells were prepared according to assay kit protocols or fixed with cold 4% paraformaldehyde (15 min) and permeabilized with 90% methanol (10 min on ice) with washing steps (PBS) and stained prior to analysis (Table 5) for 15 min in the dark at room temperature. Fluorescence was detected using a BD FACSCalibur^TM Flow Cytometer (Becton Dickinson, San Jose, CA, USA).

[2] = system: BLM melanoma cells; experiment: Flow cytometric analysis of cytochrome c release; settings: 1C 20 μmol/L, 24, 48 and 72 h
Method: as §1

[3] = system: A2058 melanoma cells; experiment: Flow cytometric analysis of caspase-3/7 activity; settings: A2058, 1C 10 μmol/L, 24, 48 and 72 h
Method: as §1

[4] = system: BLM melanoma cells; experiment: Flow cytometric analysis of caspase-3/7 activity; settings: 1C 20 μmol/L, 24, 48 and 72 h
Method: as §1

[5] = system: A2058 melanoma cells; experiment: AO/PI viability assay (fluorescence microscopy); settings: A2058, 1C 10 μmol/L, 24, 48 and 72 h
Method: (§2) The A2058 and BLM melanoma cells were seeded at a density of 5 × 10^4/well into 6-well culture plates. Twenty-four hours after seeding, A2058 cells were treated with chalcone 1C at 10 μmol/L concentration, BLM cells at 20 μmol/L concentration and both melanoma cell lines were treated with vehicle (DMSO) at the same concentrations. At 24, 48 and 72 h after treatment, the culture medium was removed, the cells were washed with washing buffer (PBS) and fixed with 4% paraformaldehyde (pH 7.2) for 30 min. In the next step, the paraformaldehyde was removed, the cells were washed with PBS and the staining solution (10 μg/mL acridine orange and 10 μg/mL propidium iodide, Sigma-Aldrich) was added to each well for 1 h incubation at room temperature in the dark. Finally, the staining solution was removed, the cells were washed with PBS and apoptosis was observed using an automated Cytation™ 3 Cell Imaging Multi-Mode Reader (Biotek, Winooski, VT, USA).

[6] = system: BLM melanoma cells; experiment: AO/PI viability assay (fluorescence microscopy); settings: 1C 20 μmol/L, 24, 48 and 72 h
Method: as §2

[7] = system: BLM; experiment: BrdU cell proliferation assay
Method: (§3) The BrdU Cell Proliferation Assay is based on the detection of BrdU (5-bromo-2′-deoxyuridine) incorporated into the newly synthesized DNA during the replication process in proliferating cells.
(§4) The A2058 (5 × 10^3/well) and BLM (5 × 10^3/well) melanoma cells were plated in a 96-well culture plate in 80 μL suitable medium. Twenty-four hours after cell seeding, different concentrations of the chalcone 1C were added ranging from 5–20 μmol/L. After 48 h of treatment, BrdU labelling solution was added to melanoma cells and incubated for another 24 h at 37 °C followed by fixation and incubation with anti-BrdU peroxidase conjugate solution for an additional 90 min in the dark at room temperature. Cells were then washed 3× with washing solution and incubated with TMB (tetramethylbenzidine) substrate solution (all Roche, Basel, Switzerland) for 5 to 30 min according to colour intensity. Finally, the stop solution (25 μL 1 M H2SO4) was added, and the incorporated BrdU was detected with an automated Cytation™ 3 Cell Imaging Multi-Mode Reader (Biotek, Winooski, VT, USA) at 450 nm. Three independent analyses were performed.

[8] = system: A2058; experiment: BrdU cell proliferation assay
Method: as §3, §4

[9] = system: A2058 melanoma cells; experiment: Flow cytometric analysis of mitochondrial membrane potential (TMRE); settings: A2058, 1C 10 μmol/L, 24, 48 and 72 h
Method: as §1

[10] = system: BLM melanoma cells; experiment: as above; settings: 1C 20 μmol/L, 24, 48 and 72 h
Method: as §1

COc1cccc(OC)c1C(=O)/C=C/c1c2ccccc2nc2ccccc12 [Compound 1C, (2E)-3-(acridin-9-yl)-1-(2,6-dimethoxyphenyl)prop-2-en-1-one]
Cytochrome c release [1]: significant release of cytochrome c
Cytochrome c release [2]: significant release of cytochrome c
Caspase-3/7 activity in apoptotic cells [3]: significant activity
Caspase-3/7 activity in apoptotic cells [4]: significant activity
Proliferation and viability (AO/PI staining) [5]: significant decrease in proliferation and viability
Proliferation and viability (AO/PI staining) [6]: significant decrease in proliferation and viability
IC50 ([7]; Homo sapiens, BLM, 72 h incubation): 16.51 ± 0.01 µM
Selectivity index, BLM (BrdU) ([7]; MCF-10A vs BLM, calculated on the basis of BrdU results): 1.99
IC50 ([8]; Homo sapiens, A2058, 72 h incubation): 8.4 ± 0.05 µM
Selectivity index, A2058 (BrdU) ([8]; MCF-10A vs A2058, calculated on the basis of BrdU results): 3.9
Cells with reduced mitochondrial membrane potential (MMP) [9]: significant increase
Cells with reduced mitochondrial membrane potential (MMP) [10]: significant increase
